Reference: US7364866B2, “Drosophila G protein coupled receptors, nucleic acids, and methods related to the same” (Pharmacia & Upjohn Company, priority 1999, dated 2008)
Read-outs that look alike come from different tables or passages of the source. Non-standard residues stand in square brackets, D forms with d. Residues, ends and D or L forms follow the SMILES beside them. No end group written: not given here. pGlu = O=C1CC[C@@H](C(=O)O)N1

Assays:
DmGPCR8 [1] = assay: [35S]GTPγS binding assay, dose response; type: biochemical, Drosophila melanogaster; details: DmGPCR8 in CHO-10001A cells; given in words
Procedure: (§1) The transfected cells were washed once with ice-cold Dulbecco's phosphate buffered saline (PBS), 5 ml per 10 cm plate, and scraped into 5 ml of the same buffer. Cell suspensions from multiple plates were combined and centrifuged at 500×g for 10 min at 4° C. The cell pellet was reconstituted in ice-cold TEE (25 mM TRIS, 5 mM EGTA, 5 mM EDTA). Convenient aliquots were snap-frozen in liquid nitrogen and stored at −70° C. After thawing, the cells were homogenized and centrifuged at 4° C., 500×g for 5 minutes to pellet nuclei and unbroken cells. The supernatant was centrifuged at 47,000×g for 30 minutes at 4° C. […] Membrane protein concentration was determined using the BCA Protein Assay Reagent from Pierce (Rockford, Ill.) and BSA as standard. […]
(§2) Ligand-induced stimulation of [^35S]GTPγS binding was expressed as fold increase over the basal activity with no ligand added. Each treatment was run either in triplicate, or, on occasion, in duplicate, and the binding (cpm) was calculated as means +/− standard deviations. Dose-response curves for the receptor/ligand systems were analyzed using a non-linear least square SAS model, y=Bmax X/(Kd+X). Other dose-response curves were analyzed using Prism (GraphPad Software, Inc. San Diego, Calif.) and the following equation y=Bottom+(Top−Bottom)/(1+10^LogEC50-X). […]

DmGPCR8 [2] = assay: direct calcium mobilization assay (FLIPR); type: cell-based, Drosophila melanogaster; details: DmGPCR8 without chimeric G-protein
Procedure: (§3) Changes in intracellular calcium levels are another recognized indicator of G protein-coupled receptor activity, and such assays can be employed to screen for modulators of DmGPCR activity. For example, CHO cells stably transfected with a DmGPCR expression vector are plated at a density of 4×10^4 cells/well in Packard black-walled, 96-well plates specially designed to discriminate fluorescence signals emanating from the various wells on the plate. The cells are incubated for 60 minutes at 37° C. in modified Dulbecco's PBS (D-PBS) containing 36 mg/L pyruvate and 1 g/L glucose and one of four calcium indicator dyes (Fluo-3™ AM, Fluo-4™ AM, Calcium Green™-1 AM, or Oregon Green™ 488 BAPTA-1 AM), each at a concentration of 4 μM. […]
(§4) A calcium response is initiated by the addition of one or more candidate receptor agonist compounds, calcium ionophore A23187 (10 μM; positive control), or ATP (4 μM; positive control). Fluorescence is measured by Molecular Device's FLIPR with an argon laser (excitation at 488 nm). […] Basal fluorescence of cells was measured for 20 seconds prior to addition of candidate agonist, ATP, or A23187, and the basal fluorescence level was subtracted from the response signal. The calcium signal is measured for approximately 200 seconds, taking readings every two seconds. […]

[3] = system: DmGPCR8 and chimeric G-proteins; assay: calcium mobilization (FLIPR) in CHO-10001A cells co-transfected with chimeric G-proteins; type: cell-based, Drosophila melanogaster; details: for EC50: read-out: EC50, calcium releasing activity
Procedure: (§5) Changes in intracellular calcium levels are another recognized indicator of G protein-coupled receptor activity, and such assays can be employed to screen for modulators of DmGPCR activity. For example, CHO cells stably transfected with a DmGPCR expression vector are plated at a density of 4×10^4 cells/well in Packard black-walled, 96-well plates specially designed to discriminate fluorescence signals emanating from the various wells on the plate. The cells are incubated for 60 minutes at 37° C. in modified Dulbecco's PBS (D-PBS) containing 36 mg/L pyruvate and 1 g/L glucose and one of four calcium indicator dyes (Fluo-3™ AM, Fluo-4™ AM, Calcium Green™-1 AM, or Oregon Green™ 488 BAPTA-1 AM), each at a concentration of 4 μM. Plates are washed once with modified D-PBS and incubated for 10 minutes at 37° C. to remove residual dye from the cellular membrane. In addition, a series of washes with modified D-PBS is performed immediately prior to activation of the calcium response.
(§6) A calcium response is initiated by the addition of one or more candidate receptor agonist compounds, calcium ionophore A23187 (10 μM; positive control), or ATP (4 μM; positive control). Fluorescence is measured by Molecular Device's FLIPR with an argon laser (excitation at 488 nm). (See, e.g., Kuntzweiler et al., Drug Dev. Res., 1998, 44(1), 14-20). The F-stop for the detector camera was set at 2.5, and the length of exposure was 0.4 milliseconds. Basal fluorescence of cells was measured for 20 seconds prior to addition of candidate agonist, ATP, or A23187, and the basal fluorescence level was subtracted from the response signal. The calcium signal is measured for approximately 200 seconds, taking readings every two seconds. Calcium ionophore A23187 and ATP increase the calcium signal 200% above baseline levels. In general, activated GPCRs increase the calcium signal approximately 10-15% above baseline signal.
Originally, we have chosen the GTPγS assay as a functional assay because agonist-driven stimulation of GTPγS reflects early events in the DmGPCR activation cascade, regardless of further activation pathways of various down-stream signaling events. This appears especially useful for the assessment of possible activation of orphan DmGPCRs with unknown functions and unknown signaling pathways. […] Since the GTPγS assay is known to poorly recognize GPCRs coupled to the Gq class of G-proteins, a Ca^+2 mobilization assay based on a FLIPR readout was used as well to evaluate Gq-coupled orphan GPCRs in CHO cells transiently transfected with DNA encoding Drosophila GPCRs.

muscle contraction = details: cited from earlier work
DmGPCR7 = assay: FLIPR analysis of intracellular calcium release; type: cell-based, Drosophila melanogaster; details: DmGPCR7 in CHO-10001A cells; peptides with C-terminal HSWGa; given in words
Procedure: as §5, §6
(§7) Originally, we have chosen the GTPγS assay as a functional assay because agonist-driven stimulation of GTPγS reflects early events in the DmGPCR activation cascade, regardless of further activation pathways of various down-stream signaling events. This appears especially useful for the assessment of possible activation of orphan DmGPCRs with unknown functions and unknown signaling pathways. The GTPγS assay was carried out with membranes prepared from CHO cells transiently transfected with DNA encoding Drosophila GPCRs using a 96-well MultiScreen G/FB filter plates and a MultiScreen vacuum manifold (Millipore) for filtration. Since the GTPγS assay is known to poorly recognize GPCRs coupled to the Gq class of G-proteins, a Ca^+2 mobilization assay based on a FLIPR readout was used as well to evaluate Gq-coupled orphan GPCRs in CHO cells transiently transfected with DNA encoding Drosophila GPCRs.

DmGPCR5 [4] = molecular target: T1, DmGPCR5 (Drosophila melanogaster, UniProt P30975, L70Q); assay: biochemical; parameters: expressed in transfected cells; host or cells: CHO-1000A (so in the source), transient
Procedure: The transfected cells were washed once with ice-cold Dulbecco's phosphate buffered saline (PBS), 5 ml per 10 cm plate, and scraped into 5 ml of the same buffer. Cell suspensions from multiple plates were combined and centrifuged at 500×g for 10 min at 4° C. The cell pellet was reconstituted in ice-cold TEE (25 mM TRIS, 5 mM EGTA, 5 mM EDTA). Convenient aliquots were snap-frozen in liquid nitrogen and stored at −70° C. After thawing, the cells were homogenized and centrifuged at 4° C., 500×g for 5 minutes to pellet nuclei and unbroken cells. The supernatant was centrifuged at 47,000×g for 30 minutes at 4° C. The membrane pellet was washed once with TEE, resuspended in 20 mM HEPES, pH 7.4, 100 mM NaCl, 10 mM MgCl2, 1 mM EDTA (assay buffer), aliquoted and frozen in liquid nitrogen. Membrane aliquots were stored at −70° C. Membrane protein concentration was determined using the BCA Protein Assay Reagent from Pierce (Rockford, Ill.) and BSA as standard.
Initially, reaction mixtures were prepared in 96-well polypropylene plates (Nunc). In each well, peptide aqueous solution (20 μl, 10×), or water controls (20 μl), 18.2 μM GDP in assay buffer (0.11 ml, 10 μM final), and membranes suspended in assay buffer (50 μl, 10 μg membrane protein) were mixed and placed on ice. […] Then the membranes were washed 3 times with 0.25 ml ice-cold wash buffer/well (10 mM HEPES, 10 mM MgCl2, pH 7.4) and vacuum filtered. […] Each treatment was carried out in triplicates.
Ligand-induced stimulation of [^35S]GTPγS binding was expressed as fold increase over the basal activity with no ligand added. Each treatment was run either in triplicate, or, on occasion, in duplicate, and the binding (cpm) was calculated as means +/− standard deviations. Dose-response curves for the receptor/ligand systems were analyzed using a non-linear least square SAS model, y=Bmax X/(Kd+X). Other dose-response curves were analyzed using Prism (GraphPad Software, Inc. San Diego, Calif.) and the following equation y=Bottom+(Top−Bottom)/(1+10^LogEC50-X).
as §7

DmGPCR5 [5] = molecular target: T1, DmGPCR5; assay: cell-based
From the text: The photoprotein luciferase provides another useful tool for assaying for modulators of DmGPCR activity. Cells (e.g., CHO cells or COS7 cells) are transiently co-transfected with both a DmGPCR expression construct (e.g., DmGPCR in pzeoSV2) and a reporter construct which includes a gene for the luciferase protein downstream from a transcription factor binding site, such as the cAMP-response element (CRE), AP-1, or NF-kappa B. Agonist binding to receptors coupled to the Gs subtype of G proteins leads to increases in cAMP, thereby activating the CRE transcription factor and resulting in expression of the luciferase gene. […] Luciferase activity may be quantitatively measured using, e.g., luciferase assay reagents that are commercially available from Promega (Madison, Wis.).
In one exemplary assay, CHO cells are plated in 24-well culture dishes at a density of 100,000 cells/well one day prior to transfection and cultured at 37° C. in MEM (Gibco/BRL) supplemented with 10% fetal bovine serum, 2 mM glutamine, 10 μg/ml penicillin, and 10 μg/ml streptomycin. […] After incubation for 15 minutes at room temperature, 15 μl of the lysate is mixed with 50 μl of substrate solution (Promega) in an opaque-white, 96-well plate, and the luminescence is read immediately on a Wallace model 1450 MicroBeta scintillation and luminescence counter (Wallace Instruments, Gaithersburg, Md.). […]

[6] = system: CHO cells stably transfected with a DmGPCR expression vector; assay: Intracellular calcium measurement using FLIPR, positive controls; type: cell-based, Chinese hamster; details: positive controls: A23187 10 μM, ATP 4 μM
Procedure: as §3, §4

DmGPCR4 = assay: [35S]GTPγS binding assay, membranes of transfected CHO cells; type: biochemical, Drosophila melanogaster; details: given in words
Procedure: as §1, §2

[7] = system: first Drosophila allatostatin receptor; details: via Gi/Go pathways; cited from earlier work

T1 sequence (P30975 whole entry L70Q): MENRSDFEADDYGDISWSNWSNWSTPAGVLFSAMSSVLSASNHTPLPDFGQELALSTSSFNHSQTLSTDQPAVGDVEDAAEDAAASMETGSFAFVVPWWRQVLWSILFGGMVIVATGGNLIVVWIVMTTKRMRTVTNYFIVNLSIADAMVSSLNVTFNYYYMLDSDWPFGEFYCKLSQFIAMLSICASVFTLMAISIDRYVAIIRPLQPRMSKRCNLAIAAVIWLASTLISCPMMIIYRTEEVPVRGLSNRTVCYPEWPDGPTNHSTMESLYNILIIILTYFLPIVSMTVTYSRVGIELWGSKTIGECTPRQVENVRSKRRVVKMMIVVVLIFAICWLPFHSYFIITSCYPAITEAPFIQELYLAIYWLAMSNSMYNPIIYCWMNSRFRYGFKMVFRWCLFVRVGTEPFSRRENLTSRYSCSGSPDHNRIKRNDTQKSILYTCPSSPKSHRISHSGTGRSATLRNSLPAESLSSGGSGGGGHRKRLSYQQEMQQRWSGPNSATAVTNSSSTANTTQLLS
Chain of DmGPCR7 (as listed by the source): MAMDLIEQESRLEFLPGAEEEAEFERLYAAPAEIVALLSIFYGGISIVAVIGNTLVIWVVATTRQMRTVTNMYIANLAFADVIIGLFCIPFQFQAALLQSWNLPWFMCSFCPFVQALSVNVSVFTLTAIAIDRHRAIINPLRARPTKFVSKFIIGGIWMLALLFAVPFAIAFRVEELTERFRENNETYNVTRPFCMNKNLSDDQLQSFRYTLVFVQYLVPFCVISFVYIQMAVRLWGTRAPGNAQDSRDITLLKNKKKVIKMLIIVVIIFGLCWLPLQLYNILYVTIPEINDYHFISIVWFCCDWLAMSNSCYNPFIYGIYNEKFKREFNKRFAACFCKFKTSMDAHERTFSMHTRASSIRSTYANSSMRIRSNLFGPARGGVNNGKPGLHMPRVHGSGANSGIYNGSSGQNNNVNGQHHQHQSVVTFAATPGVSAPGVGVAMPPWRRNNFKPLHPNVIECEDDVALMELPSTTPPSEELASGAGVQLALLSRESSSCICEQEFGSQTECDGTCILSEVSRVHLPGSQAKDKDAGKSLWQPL
Chain of DmGPCR4 (as listed by the source): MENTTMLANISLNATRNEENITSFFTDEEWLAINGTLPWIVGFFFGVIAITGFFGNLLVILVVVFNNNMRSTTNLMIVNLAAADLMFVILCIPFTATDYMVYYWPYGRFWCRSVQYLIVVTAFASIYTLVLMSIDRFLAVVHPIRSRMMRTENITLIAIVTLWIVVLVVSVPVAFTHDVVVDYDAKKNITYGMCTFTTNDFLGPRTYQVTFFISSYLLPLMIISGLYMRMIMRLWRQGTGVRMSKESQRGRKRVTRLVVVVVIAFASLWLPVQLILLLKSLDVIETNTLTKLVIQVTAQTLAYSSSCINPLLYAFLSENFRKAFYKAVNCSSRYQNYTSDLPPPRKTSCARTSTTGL

CC[C@H](C)[C@@H]1NC(=O)[C@@H]2CCCN2C(=O)[C@H](CC(N)=O)NC(=O)[C@H](Cc2ccccc2)NC(=O)[C@H](Cc2ccc(O)cc2)NC(=O)[C@@H](NC(=O)[C@H](CCC(N)=O)NC(=O)[C@H](CCCNC(=N)N)NC(=O)[C@H](Cc2ccc(O)cc2)NC(=O)[C@H](CCCNC(=N)N)NC(=O)[C@@H](NC(=O)[C@@H]2CCC(=O)N2)C(C)C)CSSC[C@@H](C(=O)N[C@@H](Cc2ccccc2)C(=O)O)NC(=O)[C@H](CO)NC1=O [DST-C, pGlu-Val-Arg-Tyr-Gln-Cys-Tyr-Phe-Asn-Pro-Ile-Ser-Cys-Phe-OH]
EC50, GTPγS-binding responses (DmGPCR8 [1]): low nanomolar range
activity in direct calcium mobilization assay (FLIPR) (DmGPCR8 [2]): did not show any activity
EC50 ([3]; co-transfected with DmGPCR8 and Gqi5): ~30 nM
EC50 ([3]; co-transfected with DmGPCR8 and Gqo5): ~30 nM
calcium mobilization ([3]; co-transfected with DmGPCR8 and Gqs5): no calcium mobilization was observed
EC50 ([3]; co-transfected with DmGPCR8 and Gqz5): 244 nM
inhibition of muscle contraction (muscle contraction): potent and prolonged inhibition

QRFHSWG [DLK-2a, QRFHSWGa]
EC50, intracellular calcium release (FLIPR) (DmGPCR7): picomoloar to subnanomolar range

CSCC[C@H](NC(=O)CNC(=O)[C@@H](NC(=O)[C@H](Cc1ccccc1)NC(=O)CNC(=O)[C@@H](NC(=O)[C@@H]1CCCN1C(=O)[C@H](C)N)[C@@H](C)O)[C@@H](C)O)C(=O)N[C@@H](CCCNC(=N)N)C(N)=O [DTK-3, APTGFTGMR-NH2] (H-APTGFTGMR-NH2)
EC50 (DmGPCR5 [4]): 250 to 500 nM

[pGlu]VRFQCYFNPISCF-OH (cysteine pairing not given here) [AST-C]
EC50, GTPγS-binding responses (DmGPCR8 [1]): low nanomolar range
activity in direct calcium mobilization assay (FLIPR) (DmGPCR8 [2]): did not show any activity

CSCC[C@H](NC(=O)CNC(=O)[C@H](CC(C)C)NC(=O)[C@H](Cc1ccccc1)NC(=O)CNC(=O)[C@H](CC(N)=O)NC(=O)[C@@H]1CCCN1C(=O)[C@H](C)N)C(=O)N[C@@H](CCCNC(=N)N)C(N)=O [DTK-5, APNGFLGMR-NH2] (H-APNGFLGMR-NH2)
EC50 (DmGPCR5 [5]): 197 nM
EC50 (DmGPCR5 [4]): 250 to 500 nM
maximal stimulation of GTPγS binding above basal level (DmGPCR5 [4]; DmGPCR5, dose-response): ca. 1.5 fold

APVNSFVGMR [DTK-4, APVNSFVGMR-NH2]
EC50, stimulation of GTPγS binding (DmGPCR5 [4]; DmGPCR5, given in words): low micromolar range

Nc1ncnc2c1ncn2[C@@H]1O[C@H](COP(=O)(O)OP(=O)(O)OP(=O)(O)O)[C@@H](O)[C@H]1O [ATP]
increase of the calcium signal above baseline levels [6]: 200%

SRPYSFGL [drostatin-3, Ser-Arg-Pro-Tyr-Ser-Phe-Gly-Leu-NH2]
EC50, GTPγS responses (DmGPCR4): low nanomolar range
functional activation of the receptor [7]: functionally activated

pGlu-RFHSWGa [DLK-2]
EC50, intracellular calcium release (FLIPR) (DmGPCR7): picomoloar to subnanomolar range

NSVVLGKKQRFHSWGa (NSVVLGKKQRFHSWG-NH2) [DLK-1]
EC50, intracellular calcium release (FLIPR) (DmGPCR7): picomoloar to subnanomolar range
